Measured values as given in ChEMBL document CHEMBL1147852, “Synthesis and biology of bis-xylosylated dihydroxynaphthalenes” (2007).

system: T-24; experiment: Antiproliferative activity against human T24 cells; format: functional; conditions: read-out: ED50 (the source's name)

`O[C@@H]1[C@@H](O)[C@H](Oc2ccc(O[C@@H]3OC[C@@H](O)[C@H](O)[C@H]3O)c3ccccc23)OC[C@H]1O` and `O[C@@H]1[C@@H](O)[C@H](Oc2cccc3c(O[C@@H]4OC[C@@H](O)[C@H](O)[C@H]4O)cccc23)OC[C@H]1O` are the same in EC50: 400 µM for the first, 400 µM for the second.

`O[C@@H]1[C@@H](O)[C@H](Oc2cc(O[C@@H]3OC[C@@H](O)[C@H](O)[C@H]3O)c3ccccc3c2)OC[C@H]1O` and `O[C@@H]1[C@@H](O)[C@H](Oc2ccc3cc(O[C@@H]4OC[C@@H](O)[C@H](O)[C@H]4O)ccc3c2)OC[C@H]1O` cannot be ordered by EC50: greater than 400 µM for the first, greater than 400 µM for the second.

With `O[C@@H]1[C@@H](Oc2ccc3ccc(O[C@@H]4OC[C@@H](O)[C@H](O)[C@H]4O)cc3c2)OC[C@H](O)[C@H]1O` the EC50 was 450 µM.
